41 compounds from US7452997B2 (priority 2004, dated 2008) can be followed below.

For one assay, the target named is human CB2 receptor (Homo sapiens, UniProt P34972). Kind of assay: Binding assay, cannabinoid CB2 receptor ([3H]-CP-55,940 displacement). To be noted: Cannabinoid CB2 Receptor Binding IC50, human CB2 receptor, SK-N-MC cell membranes, radioligand CP-55,940 0.2 nM. The protocol: (§1) Binding Assay for CB1 or CB2 Agonists or Inverse Agonists
(§2) The human CB1 and CB2 receptors were stably expressed in SK-N-MC cells transfected with pcDNA3 CB-1 (human) or pcDNA3 CB-2 (human). The cells were grown in T-180 cell culture flasks under standard cell culture conditions at 37° C. in a 5% CO2 atmosphere. The cells were harvested by trysinization and homogenized in a homogenization buffer (10 mM Tris, 0.2 mM MgCl2, 5 mM KCl, with protease inhibitors aprotinin, leupeptin, pepstatin A and bacitracin) and centrifuged (2000 g). The supernatant was then centrifuged in 2M sucrose (31,300 g) to produce a semi-purified membrane pellet. The pellet was resuspended in homogenization and store at −80° C.
(§3) On the day of the assay, the pellet was thawed on ice and diluted in assay buffer (50 mM Tris-HCl, 5 mM MgCl2, 2.5 mM EDTA, 0.5 mg/mL fatty acid free bovine serum albumin, pH 7.5). The diluted membrane was added with buffer, test compound or standard and the radioligand [H]^3+-CP-55,940_(0.2 nM) to the wells of a 96-well polypropylene plate. Non-specific binding was measured in wells containing 10 uM WIN 55,212. The plate was covered and incubated for 90 minutes at 30° C. The contents were then aspirated onto a Packard UNIFILTER GF/C filter bottom plate prewet with 0.5% polyethyleneimine. The wells of the polypropylene plate were rinsed and aspirated seven times with a 0.9% saline-0.5% TWEEN 20 solution. The UNIFILTER plate was dried, a scintillation cocktail was added to each well and the counts representing binding were quantitated in a TOPCOUNT scintillation counter.
(§4) The IC50 binding values for compounds tested were calculated by linear regression and were obtained from studies in which varying compound concentrations were used.

Another assay concerns the target T1, human CB1 receptor (Homo sapiens, UniProt P21554).
T1 construct: expressed in transfected cells; host or cells: SK-N-MC cells, stably transfected with pcDNA3 CB-1 (human); semi-purified membrane pellet
As to the kind of experiment: biochemical. Format: binding. How it is done:
as §1, §2
as §3, with “The diluted membrane was added with buffer, test compound or standard and the radioligand [H]^3+-CP-55,940_(0.2 nM) to the wells of a 96-well polypropylene plate. Non-specific binding was measured in wells containing 10 uM WIN 55,212.” left out, “UNIFILTER” left out
as §4

Structures are written as SMILES.

Sequence of human CB2 receptor (P34972 whole entry): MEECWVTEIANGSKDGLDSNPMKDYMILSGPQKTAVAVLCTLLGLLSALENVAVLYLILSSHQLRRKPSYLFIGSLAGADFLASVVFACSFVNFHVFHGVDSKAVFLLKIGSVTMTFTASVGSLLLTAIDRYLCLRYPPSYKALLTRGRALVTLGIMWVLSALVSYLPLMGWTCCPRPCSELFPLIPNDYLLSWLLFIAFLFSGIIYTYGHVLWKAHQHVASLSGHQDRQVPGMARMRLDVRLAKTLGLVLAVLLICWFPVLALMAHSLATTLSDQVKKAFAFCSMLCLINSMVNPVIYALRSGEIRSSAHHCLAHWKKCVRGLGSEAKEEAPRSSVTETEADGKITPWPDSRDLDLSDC
T1 sequence (P21554 whole entry): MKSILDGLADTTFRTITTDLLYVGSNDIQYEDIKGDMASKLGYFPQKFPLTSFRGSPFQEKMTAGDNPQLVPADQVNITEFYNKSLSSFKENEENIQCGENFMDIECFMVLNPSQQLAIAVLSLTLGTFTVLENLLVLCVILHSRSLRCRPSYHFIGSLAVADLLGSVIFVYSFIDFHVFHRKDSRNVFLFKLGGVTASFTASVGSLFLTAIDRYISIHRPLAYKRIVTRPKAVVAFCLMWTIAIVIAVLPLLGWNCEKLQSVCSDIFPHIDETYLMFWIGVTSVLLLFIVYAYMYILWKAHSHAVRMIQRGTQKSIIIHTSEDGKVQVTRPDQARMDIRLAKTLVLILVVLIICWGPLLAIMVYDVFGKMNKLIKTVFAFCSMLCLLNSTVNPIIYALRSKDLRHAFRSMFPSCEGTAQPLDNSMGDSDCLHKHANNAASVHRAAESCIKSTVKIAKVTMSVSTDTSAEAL

One may read the IC50 as the concentration that gives 50% inhibition. Turning to `CC12CCC(C1)C(C)(C)C2NC(=O)c1nn(Cc2ccccc2)c2c1CCCC2` (stereo not shown) [Cpd 194, 1-benzyl-4,5,6,7-tetrahydro-1H-indazole-3-carboxylic acid (1,3,3-trimethyl-bicyclo[2.2.1]hept-2-yl)-amide], the values for the IC50 on human CB2 receptor and at human CB1 receptor were 0.2 nM and 0.1 nM, respectively.

On to `O=C(NC1C2CC3CC(C2)CC1C3)c1nn(C2CCCCC2)c2c1CC(C(=O)O)CC2` (stereo not shown) [Cpd 223, 3-(adamantan-2-ylcarbamoyl)-1-cyclohexyl-4,5,6,7-tetrahydro-1H-indazole-5-carboxylic acid], for which the results for the concentration for half-maximal inhibition (IC50) on human CB2 receptor and at human CB1 receptor were 2900 nM and 170000 nM, respectively.

For `COc1ccc(C(O)CNC(=O)c2nn(C3CCCCC3)c3c2CCCC3)cc1` (stereo not shown) [Cpd 241, 1-cyclohexyl-4,5,6,7-tetrahydro-1H-indazole-3-carboxylic acid [2-hydroxy-2-(4-methoxy-phenyl)-ethyl]-amide], the IC50 at human CB2 receptor worked out at 500 nM; at human CB1 receptor, 3400 nM.

Consider `O=C(NCC1CCCCC1)c1nn(C2CCCCC2)c2c1CCCC2` [Cpd 304, 1-cyclohexyl-4,5,6,7-tetrahydro-1H-indazole-3-carboxylic acid cyclohexylmethylamide], for which the half-inhibitory concentration (IC50) at human CB2 receptor worked out at 20 nM; on human CB1 receptor it was 160 nM.

As for `C[C@H](C1CCCCC1)N(C)C(=O)c1nn(C2CCCCC2)c2c1CCCC2` [Cpd 328, 1-cyclohexyl-4,5,6,7-tetrahydro-1H-indazole-3-carboxylic acid [(1R)-1-cyclohexyl-ethyl]-methylamide], the results for the 50% inhibitory concentration (IC50) at human CB2 receptor and on human CB1 receptor were 1600 nM and 5100 nM, respectively.

On to `O=C(NC(c1ccccc1)C1CCCCC1)c1nn(C2CCCCC2)c2c1CCCC2` (stereo not shown) [Cpd 331, 1-cyclohexyl-4,5,6,7-tetrahydro-1H-indazole-3-carboxylic acid (cyclohexyl-phenyl)methylamide], for which the figures for the IC50 at human CB2 receptor and against human CB1 receptor were 98 nM and 3000 nM, respectively.

As for `CCOC(=O)C(Cc1nn(C2CCCCC2)c2c1CCCC2)c1ccccc1OC` (stereo not shown) [Cpd 332, 3-(1-cyclohexyl-4,5,6,7-tetrahydro-1H-indazol-3-yl)-2-(2-methoxy-phenyl)-propionic acid ethyl ester], the half-maximal inhibitory concentration (IC50) came out at 1900 nM on human CB2 receptor and 3900 nM against human CB1 receptor.

As to `COc1ccccc1C(Cc1nn(C2CCCCC2)c2c1CCCC2)C(=O)NC1C2(C)CCC(C2)C1(C)C` (stereo not shown) [Cpd 333, 3-(1-cyclohexyl-4,5,6,7-tetrahydro-1H-indazol-3-yl)-2-(2-methoxy-phenyl)-N-(1,3,3-trimethyl-bicyclo[2.2.1]hept-2-yl)-propionamide], the IC50 was 2900 nM at human CB2 receptor and 5700 nM at human CB1 receptor.

For `COC(=O)C(Cc1ccc(O)cc1)NC(=O)c1nn(-c2ccc(OC)cc2)c2c1CCCC2` (stereo not shown) [compound 5], the half-maximal inhibitory concentration (IC50) is 291 nM at human CB2 receptor and 6800 nM against human CB1 receptor.

For the compound `COC(=O)C(Cc1ccc(O)cc1)NC(=O)c1c2c(nn1-c1ccc(OC)cc1)CCCC2` (stereo not shown) [compound 6], the IC50 is 367 nM on human CB2 receptor and 6750 nM against human CB1 receptor.

With `Cc1ccc(-n2nc(C(=O)NC3C4(C)CCC(C4)C3(C)C)c3c2CCCC3)cc1` (stereo not shown) [compound 11], the concentration for half-maximal inhibition (IC50) was determined as 40.6 nM on human CB2 receptor and 285 nM against human CB1 receptor.

As to `CC12CCC(C1)C(C)(C)C2NC(=O)c1nn(-c2ccc(Cl)cc2)c2c1CCCC2` (stereo not shown) [compound 12], the 50% inhibitory concentration (IC50) at human CB2 receptor is 21.4 nM; on human CB1 receptor it was 148 nM.

Consider `O=C(NC1CCCCCCC1)c1nn(-c2ccc(F)cc2)c2c1CCCC2` [compound 15], for which the figures for the IC50 on human CB2 receptor and at human CB1 receptor were 53.8 nM and 241 nM, respectively.

Consider `CC12CCC(C1)C(C)(C)C2NC(=O)c1nn(-c2ccccc2F)c2c1CCCC2` (stereo not shown) [compound 16], for which the half-inhibitory concentration (IC50) is 5.4 nM on human CB2 receptor and 185 nM on human CB1 receptor.

Take `O=C(NC1CC2CCC1C2)c1nn(-c2ccc(F)cc2)c2c1CCCC2` (stereo not shown) [compound 20]: the IC50 is 35.2 nM at human CB2 receptor and 169 nM against human CB1 receptor.

Consider `CC1(C)C2CCC1(C)C(NC(=O)c1nn(-c3ccc(F)cc3)c3c1CCCC3)C2` (stereo not shown) [compound 21], for which the figures for the half-inhibitory concentration (IC50) at human CB2 receptor and against human CB1 receptor were 11 nM and 44 nM, respectively.

For `CC(NC(=O)c1nn(-c2ccc(F)cc2)c2c1CCCC2)C1C2CC3CC(C2)CC1C3` (stereo not shown) [compound 22], the IC50 at human CB2 receptor stood at 143 nM; against human CB1 receptor, 1030 nM.

`CCOC(=O)C1C2CCC(C2)C1NC(=O)c1nn(-c2ccc(F)cc2)c2c1CCCC2` (stereo not shown) [compound 23]: the results for the half-inhibitory concentration (IC50) at human CB2 receptor and at human CB1 receptor were 100 nM and 1800 nM, respectively.

For `CC12CCC(C1)C(C)(C)C2NC(=O)c1nn(-c2ccc(F)cc2)c2c1CCCC2C1CCCCC1` (stereo not shown) [compound 24], the IC50 at human CB2 receptor came out at 6820 nM; against human CB1 receptor it was 3810 nM.

Regarding `CC1(C)C2CCC1(C)C(NC(=O)c1nn(C3CCCCC3)c3c1CCCC3)C2` (stereo not shown) [compound 25], the IC50 is 1.6 nM at human CB2 receptor and 75.3 nM against human CB1 receptor.

Regarding `O=C(NNC1CCCCC1)c1nn(Cc2ccccc2)c2c1CCCC2` [compound 29], the IC50 at human CB2 receptor was found to be 115 nM; at human CB1 receptor it was 790 nM.

Take `O=C(NNC1CCCCC1)c1nn(-c2ccc(F)cc2)c2c1CCCC2` [compound 30]: the figures for the IC50 at human CB2 receptor and on human CB1 receptor were 1470 nM and 7890 nM, respectively.

For `O=C(NNC1CCCCC1)c1nn(C2CCCCC2)c2c1CCCC2` [compound 31], the IC50 on human CB2 receptor is 195 nM; on human CB1 receptor, 1690 nM.

In the case of `CCOC(=O)[C@@H]1CCCC[C@H]1NC(=O)c1nn(-c2ccc(F)cc2)c2c1CCCC2` [compound 34], the IC50 at human CB2 receptor is 40.9 nM; against human CB1 receptor it was 136 nM.

Take `CC(NC(=O)c1nn(Cc2ccccc2)c2c1CCCC2)C12CC3CC(CC(C3)C1)C2` (stereo not shown) [compound 39]: the half-inhibitory concentration (IC50) at human CB2 receptor was 6 nM; on human CB1 receptor, 9 nM.

Consider `O=C(NN1CCCCCC1)c1nn(Cc2ccccc2)c2c1CCCC2` [compound 41], for which the IC50 was 34.8 nM on human CB2 receptor and 49 nM on human CB1 receptor.

For the compound `CCOC(=O)C1C2CCC(C2)C1NC(=O)c1c2c(nn1Cc1ccccc1)CCCC2` (stereo not shown) [compound 42], the IC50 on human CB2 receptor is 640 nM; against human CB1 receptor, 10700 nM.

As to `O=C(NC1C2CC3CC(C2)CC1C3)c1nn(C2CCCCC2)c2c1CCCC2` (stereo not shown) [compound 45], the results for the half-inhibitory concentration (IC50) at human CB2 receptor and against human CB1 receptor were 5.6 nM and 40 nM, respectively.

As for `O=C(N[C@@H]1CCCC[C@@H]1CO)c1nn(C2CCCCC2)c2c1CCCC2` [compound 48], the figures for the half-maximal inhibitory concentration (IC50) on human CB2 receptor and at human CB1 receptor were 55.3 nM and 249 nM, respectively.

As for `O=C(N[C@@H]1CCCC[C@H]1CO)c1nn(C2CCCCC2)c2c1CCCC2` [compound 49], the IC50 on human CB2 receptor was 72.8 nM; against human CB1 receptor it was 150 nM.

Regarding `O=C(CCc1nn(C2CCCCC2)c2c1CCCC2)N[C@@H]1CCCC[C@H]1CO` [compound 51], the results for the IC50 on human CB2 receptor and on human CB1 receptor were 8420 nM and 15200 nM, respectively.

As for `O=C(CCc1nn(C2CCCCC2)c2c1CCCC2)N[C@@H]1C2CCC(C2)[C@@H]1CO` (stereo partly shown) [compound 52], the half-inhibitory concentration (IC50) at human CB2 receptor was determined as 4900 nM; on human CB1 receptor, 6260 nM.

Turning to `CC(NC(=O)CCc1nn(C2CCCCC2)c2c1CCCC2)C12CC3CC(CC(C3)C1)C2` (stereo not shown) [compound 53], the IC50 on human CB2 receptor is 230 nM; against human CB1 receptor, 6120 nM.

As for `CCOC(=O)[C@H]1C2CCC(C2)[C@H]1NC(=O)CCc1nn(C2CCCCC2)c2c1CCCC2` (stereo partly shown) [compound 54], the IC50 worked out at 6050 nM on human CB2 receptor and 11400 nM against human CB1 receptor.

With `CCOC(=O)C1=C(NC(=O)c2nn(C3CCCCC3)c3c2CCCC3)CCC1` [compound 57], the IC50 on human CB2 receptor was 2200 nM; on human CB1 receptor it was 10900 nM.

For the compound `CCOC(=O)[C@H]1CCC[C@H]1NC(=O)c1nn(C2CCCCC2)c2c1CCCC2` [compound 58], the values for the IC50 on human CB2 receptor and against human CB1 receptor were 170 nM and 736 nM, respectively.

With `CCOC(=O)[C@H]1CCCC[C@@H]1NC(=O)c1nn(C2CCCCC2)c2c1CCCC2` [compound 59], the 50% inhibitory concentration (IC50) at human CB2 receptor was found to be 70 nM; on human CB1 receptor it was 340 nM.

As to `CCOC(=O)[C@@H]1CCC[C@@H]1NC(=O)c1nn(C2CCCCC2)c2c1CCCC2Cl` (stereo partly shown) [compound 61], the values for the IC50 on human CB2 receptor and against human CB1 receptor were 190 nM and 2190 nM, respectively.

Regarding `CCOC(=O)[C@H]1C2CCC(C2)[C@H]1NC(=O)c1nn(C2CCCCC2)c2c1CCCC2Cl` (stereo partly shown) [compound 63], the IC50 on human CB2 receptor stood at 3300 nM; against human CB1 receptor, 13700 nM.

Regarding `CC(NC(=O)c1nn(C2CCCCC2)c2c1CCCC2Cl)C12CC3CC(CC(C3)C1)C2` (stereo not shown) [compound 64], the figures for the IC50 at human CB2 receptor and against human CB1 receptor were 30 nM and 410 nM, respectively.

As to `CCOC(=O)C1CCc2c(C(=O)NC3C4CC5CC(C4)CC3C5)nn(C3CCCCC3)c2C1` (stereo not shown) [compound 68], the IC50 on human CB2 receptor came to 57 nM; on human CB1 receptor, 463 nM.
